Molecular target: recombinant mTOR (FLAG-tagged, residues 1362-2549) (Homo sapiens, UniProt P42345)
Experiment: In vitro mTOR kinase assay (Test (a), AlphaScreen)
Type: biochemical
Settings: ATP 20 μM, read-out: Test (a): IC50 versus mTOR kinase
Procedure: (a) In Vitro mTOR Kinase Assay
Following expression in the mammalian HEK293 cell line, expressed protein was purified using the FLAG epitope tag using standard purification techniques.
Aliquots (2 μl) of each compound dilution were placed into a well of a Greiner 384-well low volume (LV) white polystyrene plate (Greiner Bio-one).
These assay solutions were incubated for 2 hours at room temperature.
The resultant signals arising from laser light excitation at 680 nm were read using a Packard Envision instrument.
The phosphorylated biotinylated peptide that is associated with AlphaScreen Streptavidin donor beads forms a complex with the p70 S6 Kinase (T389) 1A5 Monoclonal Antibody that is associated with Alphascreen Protein A acceptor beads. Upon laser light excitation at 680 nm, the donor bead: acceptor bead complex produces a signal that can be measured. Accordingly, the presence of mTOR kinase activity results in an assay signal. In the presence of an mTOR kinase inhibitor, signal strength is reduced.
mTOR enzyme inhibition for a given test compound was expressed as an IC50 value.

Chain of recombinant mTOR (FLAG-tagged, residues 1362-2549) (P42345 1362-2549): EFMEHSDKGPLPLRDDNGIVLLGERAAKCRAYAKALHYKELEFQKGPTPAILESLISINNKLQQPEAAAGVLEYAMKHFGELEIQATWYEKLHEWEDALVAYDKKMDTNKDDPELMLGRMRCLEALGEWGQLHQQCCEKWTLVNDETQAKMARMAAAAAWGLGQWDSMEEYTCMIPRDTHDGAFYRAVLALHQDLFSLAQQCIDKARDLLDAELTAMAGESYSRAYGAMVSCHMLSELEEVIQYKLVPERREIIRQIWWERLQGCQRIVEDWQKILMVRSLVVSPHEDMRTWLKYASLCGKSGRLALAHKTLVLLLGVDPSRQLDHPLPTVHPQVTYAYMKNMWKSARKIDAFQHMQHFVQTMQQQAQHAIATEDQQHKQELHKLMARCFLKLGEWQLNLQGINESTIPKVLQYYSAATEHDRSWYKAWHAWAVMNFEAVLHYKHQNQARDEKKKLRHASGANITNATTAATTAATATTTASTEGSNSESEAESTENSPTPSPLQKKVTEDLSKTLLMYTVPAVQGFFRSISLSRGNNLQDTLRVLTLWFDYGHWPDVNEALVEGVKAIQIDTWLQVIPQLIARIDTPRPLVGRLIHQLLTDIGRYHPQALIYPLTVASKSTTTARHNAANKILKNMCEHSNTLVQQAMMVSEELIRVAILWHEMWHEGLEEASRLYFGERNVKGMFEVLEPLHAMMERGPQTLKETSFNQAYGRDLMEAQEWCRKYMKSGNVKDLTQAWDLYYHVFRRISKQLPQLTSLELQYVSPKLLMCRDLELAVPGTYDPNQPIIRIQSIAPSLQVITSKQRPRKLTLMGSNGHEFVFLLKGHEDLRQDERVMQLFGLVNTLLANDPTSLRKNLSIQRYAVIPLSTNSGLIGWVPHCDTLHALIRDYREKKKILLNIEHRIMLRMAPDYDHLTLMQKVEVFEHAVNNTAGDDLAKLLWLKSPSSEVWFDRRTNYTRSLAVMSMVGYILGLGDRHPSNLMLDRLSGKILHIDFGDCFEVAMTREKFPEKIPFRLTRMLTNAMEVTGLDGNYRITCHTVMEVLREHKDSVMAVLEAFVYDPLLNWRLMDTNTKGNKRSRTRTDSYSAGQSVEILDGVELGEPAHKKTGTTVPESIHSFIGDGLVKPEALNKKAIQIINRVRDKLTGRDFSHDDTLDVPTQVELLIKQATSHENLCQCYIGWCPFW

Structure (SMILES) | IC50
C[C@H]1COCCN1c1cc(CS(=O)(=O)c2ccccc2)nc(-c2ccc(NC(=O)NC3CCN(C)CC3)cc2)n1 [Example 20i, 1-[4-[4-(benzenesulfonylmethyl)-6-[(3S)-3-methylmorpholin-4-yl]pyrimidin-2-yl]phenyl]-3-(1-methyl-4-piperidyl)urea] | 700 nM
C[C@H]1COCCN1c1cc(CS(C)(=O)=O)nc(-n2ccc(NC(=O)NC3CC3)n2)n1 [Example 24m, 3-cyclopropyl-1-[1-[4-[(3S)-3-methylmorpholin-4-yl]-6-(methylsulfonylmethyl)pyrimidin-2-yl]pyrazol-3-yl]urea] | 650 nM
C[C@H]1COCCN1c1cc(CS(C)(=O)=O)nc(-n2ccc(NC(=O)Nc3ccc(F)cc3)n2)n1 [Example 25b, 3-(4-fluorophenyl)-1-[1-[4-[(3S)-3-methylmorpholin-4-yl]-6-(methylsulfonylmethyl)pyrimidin-2-yl]pyrazol-3-yl]urea] | 4400 nM
C[C@H]1COCCN1c1cc(CS(=O)(=O)c2nccs2)nc(-c2ccc(NC(=O)NC3CC3)cc2)n1 [Example 43e, 3-cyclopropyl-1-[4-[4-[(3S)-3-methylmorpholin-4-yl]-6-(1,3-thiazol-2-ylsulfonylmethyl)pyrimidin-2-yl]phenyl]urea] | 130 nM
CNC(=O)Nc1ncc(-c2nc(CS(C)(=O)=O)cc(N3CCOC[C@@H]3C)n2)s1 [Example 46, 3-Methyl-1-[5-[4-[(3S)-3-methylmorpholin-4-yl]-6-(methylsulfonylmethyl)pyrimidin-2-yl]-1,3-thiazol-2-yl]urea] | 140 nM
C[C@H]1COCCN1C(=O)c1cc(N2CCOC[C@@H]2C)nc(-c2ccc(NC(=O)NC3CC3)cc2)n1 [Example 36, 3-Cyclopropyl-1-[4-[4-[(3S)-3-methylmorpholine-4-carbonyl]-6-[(3S)-3-methylmorpholin-4-yl]pyrimidin-2-yl]phenyl]urea] | 62 nM
C[C@H]1COCCN1c1cc(CNc2ccccc2)nc(-c2ccc(NC(=O)Nc3ccccc3)cc2)n1 [Example 30, 1-[4-[4-(Anilinomethyl)-6-[(3S)-3-methylmorpholin-4-yl]pyrimidin-2-yl]phenyl]-3-phenyl-urea] | 900 nM
C[C@H]1COCCN1c1cc(CN2CCN(C)CC2)nc(-c2ccc(NC(=O)Nc3ccccc3)cc2)n1 [Example 30a, 1-[4-[4-[(3S)-3-methylmorpholin-4-yl]-6-[(4-methylpiperazin-1-yl)methyl]pyrimidin-2-yl]phenyl]-3-phenyl-urea] | 120 nM
CNC(=O)Nc1ccc(-c2nc(CS(=O)(=O)c3ccccn3)cc(N3CCOC[C@@H]3C)n2)cc1 [Example 33f, 3-methyl-1-[4-[4-[(3S)-3-methylmorpholin-4-yl]-6-(pyridin-2-ylsulfonylmethyl)pyrimidin-2-yl]phenyl]urea] | 270 nM
CCNC(=O)Nc1ncc(-c2nc(CS(C)(=O)=O)cc(N3CCOC[C@@H]3C)n2)s1 [Example 46b, 1-ethyl-3-[5-[4-[(3S)-3-methylmorpholin-4-yl]-6-(methylsulfonylmethyl)pyrimidin-2-yl]-1,3-thiazol-2-yl]urea] | 6.1 nM
C[C@H]1COCCN1c1cc(CS(=O)(=O)c2ccccc2)nc(-c2ccc(NC(=O)Nc3ccccc3)cc2)n1 [Example 12, 1-[4-[4-(Benzenesulfonylmethyl)-6-[(3S)-3-methylmorpholin-4-yl]pyrimidin-2-yl]phenyl]-3-phenyl-urea] | 230 nM
C[C@H]1COCCN1c1cc(CNC2CC2)nc(-c2ccc(NC(=O)NC3CC3)cc2)n1 [Example 49, 3-Cyclopropyl-1-[4-[4-[(cyclopropylamino)methyl]-6-[(3S)-3-methylmorpholin-4-yl]pyrimidin-2-yl]phenyl]urea] | 33 nM
CNC(=O)Nc1ccc(-c2nc(CS(=O)(=O)c3ccc(NC(C)=O)cc3)cc(N3CCOC[C@@H]3C)n2)cc1 [Example 19c, N-[4-[[2-[4-(methylcarbamoylamino)phenyl]-6-[(3S)-3-methylmorpholin-4-yl]pyrimidin-4-yl]methylsulfonyl]phenyl]acetamide] | 22 nM
C[C@H]1COCCN1c1cc(CS(C)(=O)=O)nc(-c2cccc(NC(=O)Nc3ccccc3)c2)n1 [Example 3c, 1-[3-[4-[(3S)-3-Methylmorpholin-4-yl]-6-(methylsulfonylmethyl)pyrimidin-2-yl]phenyl]-3-phenyl-urea] | 3300 nM
COCCNC(=O)Nc1ccc(-c2nc(CS(C)(=O)=O)cc(N3CCOC[C@@H]3C)n2)cc1F [Example 4g, 3-[2-fluoro-4-[4-[(3S)-3-methylmorpholin-4-yl]-6-(methylsulfonylmethyl)pyrimidin-2-yl]phenyl]-1-(2-methoxyethyl)urea] | 830 nM

Continued, values first:

IC50 | Structure (SMILES)
730 nM | CCNC(=O)Nc1ccc(-c2nc(N3CCOCC3)cc(C(C)(C)S(C)(=O)=O)n2)cc1 [Example 21a, 1-ethyl-3-[4-[4-(2-methylsulfonylpropan-2-yl)-6-morpholin-4-yl-pyrimidin-2-yl]phenyl]urea]
3400 nM | C[C@H]1COCCN1c1cc(CS(C)(=O)=O)nc(-c2ccc(NC(=O)N3CCCC3)cc2)n1 [Example 35c, N-[4-[4-[(3S)-3-methylmorpholin-4-yl]-6-(methylsulfonylmethyl)pyrimidin-2-yl]phenyl]pyrrolidine-1-carboxamide]
88 nM | CNC(=O)Nc1ccc(-c2nc(CS(=O)(=O)c3ccccc3C)cc(N3CCOC[C@@H]3C)n2)cc1 [Example 33e, 3-methyl-1-[4-[4-[(3S)-3-methylmorpholin-4-yl]-6-[(2-methylphenyl)sulfonylmethyl]pyrimidin-2-yl]phenyl]urea]
2500 nM | C[C@H]1COCCN1c1cc(CS(C)(=O)=O)nc(-c2ccc(NC(=O)N3CCC(O)CC3)cc2)n1 [Example 35e, 4-hydroxy-N-[4-[4-[(3S)-3-methylmorpholin-4-yl]-6-(methylsulfonylmethyl)pyrimidin-2-yl]phenyl]piperidine-1-carboxamide]
660 nM | CN(CCO)C(=O)Nc1ccc(-c2nc(CS(C)(=O)=O)cc(N3CCOCC3)n2)cc1 [Example 45, 1-(2-Hydroxyethyl)-1-methyl-3-[4-[4-(methylsulfonylmethyl)-6-morpholin-4-yl-pyrimidin-2-yl]phenyl]urea]
170 nM | CC(C)NC(=O)Nc1ccc(-c2nc(CS(C)(=O)=O)cc(N3CCOCC3)n2)cc1 [Example 7, 3-[4-[4-(Methylsulfonylmethyl)-6-morpholin-4-yl-pyrimidin-2-yl]phenyl]-1-propan-2-yl-urea]
1000 nM | CN(C)CCNC(=O)Nc1ccc(-c2nc(CS(=O)(=O)c3ccccc3)cc(N3CCOCC3)n2)cc1 [Example 20c, 3-[4-[4-(benzenesulfonylmethyl)-6-morpholin-4-yl-pyrimidin-2-yl]phenyl]-1-(2-dimethylaminoethyl)urea]
42 nM | CNC(=O)Nc1c(F)cc(-c2nc(N3CCOC[C@@H]3C)cc(C(C)(C)S(C)(=O)=O)n2)cc1F [Example 24ab, 1-[2,6-difluoro-4-[4-[(3S)-3-methylmorpholin-4-yl]-6-(2-methylsulfonylpropan-2-yl)pyrimidin-2-yl]phenyl]-3-methyl-urea]
0.31 nM | CNC(=O)Nc1ccc(-c2nc(CS(=O)(=O)c3ccc(N)cc3)cc(N3CCOC[C@@H]3C)n2)cc1 [Example 33d, 1-[4-[4-[(4-aminophenyl)sulfonylmethyl]-6-[(3S)-3-methylmorpholin-4-yl]pyrimidin-2-yl]phenyl]-3-methyl-urea]
470 nM | CC(C)(C)NC(=O)Nc1ccc(-c2nc(CS(C)(=O)=O)cc(N3CCOCC3)n2)cc1 [Example 8a, 1-[4-[4-(methylsulfonylmethyl)-6-morpholin-4-yl-pyrimidin-2-yl]phenyl]-3-tert-butyl-urea]
290 nM | C[C@H]1COCCN1c1cc(CS(C)(=O)=O)nc(-c2ccc(NC(=O)N(C)C)cc2)n1 [Example 2b, 1,1-dimethyl-3-[4-[4-[(3S)-3-methylmorpholin-4-yl]-6-(methylsulfonylmethyl)pyrimidin-2-yl]phenyl]urea]
170 nM | CS(=O)(=O)Cc1cc(N2CCOCC2)nc(-c2ccc(NC(=O)N3CCCC(O)C3)cc2)n1 (stereo not shown) [Example 45m, 3-hydroxy-N-[4-[4-(methylsulfonylmethyl)-6-morpholin-4-yl-pyrimidin-2-yl]phenyl]piperidine-1-carboxamide]
820 nM | C[C@H]1COCCN1c1cc(CS(C)(=O)=O)nc(-c2ccc(NC(=O)NC(C)(C)C)cc2)n1 [Example 35f, 1-[4-[4-[(3S)-3-methylmorpholin-4-yl]-6-(methylsulfonylmethyl)pyrimidin-2-yl]phenyl]-3-tert-butyl-urea]
340 nM | C[C@H]1COCCN1c1cc(CS(C)(=O)=O)nc(-c2ccc(NC(=O)NCCc3ccccn3)cc2)n1 [Example 24, 1-[4-[4-[(3S)-3-Methylmorpholin-4-yl]-6-(methylsulfonylmethyl)pyrimidin-2-yl]phenyl]-3-(2-pyridin-2-ylethyl)urea]
220 nM | C[C@H]1COCCN1c1cc(CS(C)(=O)=O)nc(-c2ccc(NC(=O)NCc3cncs3)cc2)n1 [Example 24j, 1-[4-[4-[(3S)-3-methylmorpholin-4-yl]-6-(methylsulfonylmethyl)pyrimidin-2-yl]phenyl]-3-(1,3-thiazol-5-ylmethyl)urea]
1600 nM | Cc1cccc(C)c1NC(=O)Nc1ccc(-c2nc(CS(C)(=O)=O)cc(N3CCOC[C@@H]3C)n2)cc1 [Example 22b, 1-(2,6-dimethylphenyl)-3-[4-[4-[(3S)-3-methylmorpholin-4-yl]-6-(methylsulfonylmethyl)pyrimidin-2-yl]phenyl]urea]
